Assay results published in ChEMBL document CHEMBL4359931, “Synthesis, biological evaluation and molecular docking studies of new amides of 4-bromothiocolchicine as anticancer agents” (Bioorg Med Chem, 2019).
Activity calls are given as the source filed them. The rule behind the calls is not given here.

Legend:
[1] = Selectivity index, ratio of IC50 of mouse BALB/3T3 cells to IC50 of human MCF7 cells; type: toxicity; conditions: BALB/3T3 cells versus MCF7 cells, read-out: Ratio IC50
[2] = Cell cycle arrest in human ALL5 cells assessed as accumulation in G1 phase at 5 times of antiproliferative IC50 incubated for 72 hrs by propidium iodide based flow cytometry (reference value: 59.7 %); type: functional
[3] = Cell cycle arrest in human ALL5 cells assessed as accumulation in subG1 phase at 5 times of antiproliferative IC50 incubated for 72 hrs by propidium iodide based flow cytometry (reference value: 15.5 %); type: functional
Homo sapiens [4] = species on record: Homo sapiens; experiment: Induction of cell death in human ALL5 cells assessed as decrease in 4 N DNA at 5 times of antiproliferative IC50 incubated for 72 hrs by propidium iodide based flow cytometry; type: functional
Homo sapiens [5] = species on record: Homo sapiens; experiment: Induction of cell cycle arrest in human ALL5 cells assessed as increase in 4 N DNA at 5 times of antiproliferative IC50 incubated for 48 hrs by propidium iodide based flow cytometry; type: functional
MCF7 [6] = experiment: Cell cycle arrest in human MCF7 cells assessed as accumulation in subG1 phase at 5 times of antiproliferative IC50 incubated for 72 hrs by propidium iodide based flow cytometry (reference value: 3.59 %); type: functional
[7] = Resistance index, ratio of IC50 of human LoVo/DX cells to IC50 of human LoVo cells; type: functional
[8] = Cell cycle arrest in human ALL5 cells assessed as accumulation in G2 phase at 5 times of antiproliferative IC50 incubated for 48 hrs by propidium iodide based flow cytometry (reference value: 11.2 %); type: functional
[9] = Antiproliferative activity against human LoVo/DX cells assessed as reduction in cell viability incubated for 120 hrs by MTT assay; type: functional, cell-based
[10] = Cell cycle arrest in human ALL5 cells assessed as accumulation in S phase at 5 times of antiproliferative IC50 incubated for 24 hrs by propidium iodide based flow cytometry (reference value: […]); type: functional
[11] = Cell cycle arrest in human ALL5 cells assessed as accumulation in G2 phase at 5 times of antiproliferative IC50 incubated for 72 hrs by propidium iodide based flow cytometry (reference value: 11.3 %); type: functional
[12] = Antiproliferative activity against human ALL5 cells assessed as reduction in cell viability incubated for 120 hrs by MTT assay; type: functional, cell-based; conditions: ALL5, 120 h
A549 = experiment: Antiproliferative activity against human A549 cells assessed as reduction in cell viability incubated for 120 hrs by MTT assay; type: functional, cell-based; conditions: A549, 120 h
MCF7 [13] = experiment: Cell cycle arrest in human MCF7 cells assessed as accumulation in G1 phase at 5 times of antiproliferative IC50 incubated for 24 hrs by propidium iodide based flow cytometry (reference value: 49.9 %); type: functional
MCF7 [14] = experiment: Cell cycle arrest in human MCF7 cells assessed as accumulation in subG1 phase at 5 times of antiproliferative IC50 incubated for 48 hrs by propidium iodide based flow cytometry (reference value: 9.19 %); type: functional
[15] = Cell cycle arrest in human ALL5 cells assessed as accumulation in subG1 phase at 5 times of antiproliferative IC50 incubated for 24 hrs by propidium iodide based flow cytometry (reference value: 10.5 %); type: functional
BALB/3T3 = experiment: Antiproliferative activity against mouse BALB/3T3 cells assessed as reduction in cell viability incubated for 120 hrs by MTT assay; type: cell-based; conditions: BALB/3T3, 120 h
MCF7 [16] = experiment: Cell cycle arrest in human MCF7 cells assessed as accumulation in G2 phase at 5 times of antiproliferative IC50 incubated for 24 hrs by propidium iodide based flow cytometry (reference value: 22.4 %); type: functional
[17] = Cell cycle arrest in human ALL5 cells assessed as accumulation in G1 phase at 5 times of antiproliferative IC50 incubated for 24 hrs by propidium iodide based flow cytometry (reference value: 68.1 %); type: functional
Homo sapiens [18] = species on record: Homo sapiens; experiment: Induction of apoptosis in human ALL5 cells assessed as increase in 85 kDa PARP expression at 26.5 uM incubated for 24 and 48 hrs by immunoblot analysis; type: functional, cell-based
LoVo = experiment: Antiproliferative activity against human LoVo cells assessed as reduction in cell viability incubated for 120 hrs by MTT assay; type: functional, cell-based
MCF7 [19] = experiment: Cell cycle arrest in human MCF7 cells assessed as accumulation in G2 phase at 5 times of antiproliferative IC50 incubated for 72 hrs by propidium iodide based flow cytometry (reference value: 18.6 %); type: functional
Homo sapiens [20] = species on record: Homo sapiens; experiment: Induction of cell cycle arrest in human ALL5 cells assessed as increase in 4 N DNA at 5 times of antiproliferative IC50 incubated for 24 hrs by propidium iodide based flow cytometry; type: functional
MCF7 [21] = experiment: Cell cycle arrest in human MCF7 cells assessed as accumulation in G1 phase at 5 times of antiproliferative IC50 incubated for 48 hrs by propidium iodide based flow cytometry (reference value: 40.8 %); type: functional
[22] = Cell cycle arrest in human ALL5 cells assessed as accumulation in S phase at 5 times of antiproliferative IC50 incubated for 48 hrs by propidium iodide based flow cytometry (reference value: 10.3 %); type: functional
MCF7 [23] = experiment: Cell cycle arrest in human MCF7 cells assessed as accumulation in G1 phase at 5 times of antiproliferative IC50 incubated for 72 hrs by propidium iodide based flow cytometry (reference value: 58 %); type: functional
[24] = Cell cycle arrest in human ALL5 cells assessed as accumulation in subG1 phase at 5 times of antiproliferative IC50 incubated for 48 hrs by propidium iodide based flow cytometry (reference value: 11 %); type: functional
MCF7 [25] = experiment: Cell cycle arrest in human MCF7 cells assessed as accumulation in subG1 phase at 5 times of antiproliferative IC50 incubated for 24 hrs by propidium iodide based flow cytometry (reference value: 7.79 %); type: functional
[26] = Selectivity index, ratio of IC50 of mouse BALB/3T3 cells to IC50 of human LoVo/DX cells; type: toxicity; conditions: BALB/3T3 cells versus LoVo/DX cells, read-out: Ratio IC50
Homo sapiens [27] = species on record: Homo sapiens; experiment: Induction of apoptosis in human ALL5 cells assessed as reduction in 116 kDa PARP expression at 26.5 uM incubated for 24 and 48 hrs by immunoblot analysis; type: functional, cell-based
[28] = Selectivity index, ratio of IC50 of mouse BALB/3T3 cells to IC50 of human ALL5 cells
MCF7 [29] = experiment: Cell cycle arrest in human MCF7 cells assessed as accumulation in G2 phase at 5 times of antiproliferative IC50 incubated for 48 hrs by propidium iodide based flow cytometry (reference value: 16 %); type: functional
[30] = Selectivity index, ratio of IC50 of mouse BALB/3T3 cells to IC50 of human A549 cells
MCF7 [31] = experiment: Cell cycle arrest in human MCF7 cells assessed as accumulation in S phase at 5 times of antiproliferative IC50 incubated for 48 hrs by propidium iodide based flow cytometry (reference value: 34 %); type: functional
MCF7 [32] = experiment: Antiproliferative activity against human MCF7 cells assessed as reduction in cell viability incubated for 120 hrs by MTT assay; type: functional, cell-based; conditions: MCF7, 120 h
[33] = Cell cycle arrest in human ALL5 cells assessed as accumulation in G2 phase at 5 times of antiproliferative IC50 incubated for 24 hrs by propidium iodide based flow cytometry (reference value: 10.6 %); type: functional
[34] = Cell cycle arrest in human ALL5 cells assessed as accumulation in S phase at 5 times of antiproliferative IC50 incubated for 72 hrs by propidium iodide based flow cytometry (reference value: 13.5 %); type: functional
MCF7 [35] = experiment: Cell cycle arrest in human MCF7 cells assessed as accumulation in S phase at 5 times of antiproliferative IC50 incubated for 72 hrs by propidium iodide based flow cytometry (reference value: 19.8 %); type: functional
MCF7 [36] = experiment: Cell cycle arrest in human MCF7 cells assessed as accumulation in S phase at 5 times of antiproliferative IC50 incubated for 24 hrs by propidium iodide based flow cytometry (reference value: 19.9 %); type: functional
[37] = Cell cycle arrest in human ALL5 cells assessed as accumulation in G1 phase at 5 times of antiproliferative IC50 incubated for 48 hrs by propidium iodide based flow cytometry (reference value: 67.4 %); type: functional
[38] = Selectivity index, ratio of IC50 of mouse BALB/3T3 cells to IC50 of human LoVo cells; type: toxicity; conditions: BALB/3T3 cells versus LoVo cells, read-out: Ratio IC50

## COCC(=O)N[C@H]1CCc2c(Br)c(OC)c(OC)c(OC)c2-c2ccc(SC)c(=O)cc21
[1]
  selectivity ratio: 1
[2]
  Activity: 29.3%
[3]
  Activity: 36.8%
Homo sapiens [4]
  Activity: Active
Homo sapiens [5]
  Activity: Active
MCF7 [6]
  Activity: 15.1%
[7]
  Ratio IC50: 9.3
[8]
  Activity: 20.6%
[9]
  IC50: 71.2 nM
[10]
  Activity: 14.1%
[11]
  Activity: 8.92%
[12]
  IC50: 5.3 nM
A549
  IC50: 10.2 nM
MCF7 [13]
  Activity: 9.68%
MCF7 [14]
  Activity: 13.5%
[15]
  Activity: 17.1%
BALB/3T3
  IC50: 11.4 nM
MCF7 [16]
  Activity: 74.7%
[17]
  Activity: 52.3%
Homo sapiens [18]
  Activity: Active
LoVo
  IC50: 7.6 nM
MCF7 [19]
  Activity: 65%
Homo sapiens [20]
  Activity: Active
MCF7 [21]
  Activity: 11.9%
[22]
  Activity: 15.3%
MCF7 [23]
  Activity: 11.9%
[24]
  Activity: 29.1%
MCF7 [25]
  Activity: 6.3%
[26]
  selectivity ratio: 0.2
Homo sapiens [27]
  Activity: Active
[28]
  Ratio IC50: 2.2
MCF7 [29]
  Activity: 54.3%
[30]
  Ratio IC50: 1.1
MCF7 [31]
  Activity: 20.3%
MCF7 [32]
  IC50: 11.4 nM
[33]
  Activity: 16.5%
[34]
  Activity: 25%
MCF7 [35]
  Activity: 7.98%
MCF7 [36]
  Activity: 9.28%
[37]
  Activity: 35%
[38]
  selectivity ratio: 1.5
